Source: patent publication US7407775B2, “Method for identifying Listeria monocytogenes and culture medium” (Biomerieux S.A., priority 2000, dated 2008)

How the values were obtained:
Experiment in all cases: Experiment 1: esterase substrates, same chromogenic marker, fatty acids of different chain lengths
Assay type in all cases: cell-based
Design in all cases: key: —: the symbol “-” corresponds to the absence of color or intensity; 0 corresponds to no activity; 0.1 corresponds to a trace of color; 0.5 corresponds to very pale coloration; 1 corresponds to clear but low-intensity coloration; 1.5 corresponds to a degree of coloration intermediate between scores 1 and 2; 2 corresponds to clear coloration of moderate intensity; 2.5 corresponds to a degree of coloration intermediate between scores 2 and 3; 3 corresponds to intense coloration; 3.5 corresponds to a degree of coloration intermediate between scores 3 and 4; 4 corresponds to very intense coloration
Details in all cases: 37° C., substrate 250 mg/l
[1] = tested on: Listeria grayi ATCC 19120
Method: (§1) A stock solution of each substrate at a concentration of 40 g/l was made up in a mixture of 40% Dimethylsulfoxide and 60% Polyoxyethylenesorbitan Monolaurate (Tween 20). An appropriate volume was added to three Columbia-type media while cooling to give a final substrate concentration of 250 mg/l. These dishes were divided into three areas and then each area was inoculated with a suspension (density=0.5 McFarland) of microorganisms taken from either the Applicant's own collection or the ATCC. The dishes were incubated for 48 hours at 37° C. The colonies which grew were examined by eye after 24 and 48 hours of incubation. Both the color and the intensity of the color of the colonies were recorded.
(§2) In Table 1 above, as in the following Tables, C represents the color of the colonies after incubation, I represents the intensity of the color, and the symbol “-” corresponds to the absence of color or intensity; finally, IT defines the incubation time. It should be noted that the intensity of the color is scored on an arbitrary scale but one which is consistent for all the biological specimens and media tested. This scale is valid for this experiment as well as all those that follow. It can be defined in the following way: • 0 corresponds to no activity, • 0.1 corresponds to a trace of color, • 0.5 corresponds to very pale coloration, • 1 corresponds to clear but low-intensity coloration, • 1.5 corresponds to a degree of coloration intermediate between scores 1 and 2, • 2 corresponds to clear coloration of moderate intensity, • 2.5 corresponds to a degree of coloration intermediate between scores 2 and 3, • 3 corresponds to intense coloration, • 3.5 corresponds to a degree of coloration intermediate between scores 3 and 4, • 4 corresponds to very intense coloration.

[2] = tested on: Listeria innocua 166
Method: as §1, §2

[3] = tested on: Listeria seeligeri 011
Method: as §1, §2

[4] = tested on: Listeria innocua ATCC 33090
Method: as §1, §2

[5] = tested on: Listeria ivanovii 018
Method: as §1, §2

[6] = tested on: Listeria innocua 171
Method: as §1, §2

[7] = tested on: Listeria welshimeri 078
Method: as §1, §2

| SMILES | C (color of the colonies) ([1]; IT 24 h) | I (intensity of the color) ([1]; IT 24 h) | C (color of the colonies) ([1]; IT 48 h) | I (intensity of the color) ([1]; IT 48 h) | C (color of the colonies) ([2]; IT 24 h) | I (intensity of the color) ([2]; IT 24 h) | C (color of the colonies) ([2]; IT 48 h) | I (intensity of the color) ([2]; IT 48 h) | C (color of the colonies) ([3]; IT 24 h) | I (intensity of the color) ([3]; IT 24 h) | C (color of the colonies) ([3]; IT 48 h) | I (intensity of the color) ([3]; IT 48 h) | C (color of the colonies) ([4]; IT 24 h) | I (intensity of the color) ([4]; IT 24 h) | C (color of the colonies) ([4]; IT 48 h) | I (intensity of the color) ([4]; IT 48 h) | C (color of the colonies) ([5]; IT 24 h) | I (intensity of the color) ([5]; IT 24 h) | C (color of the colonies) ([5]; IT 48 h) | I (intensity of the color) ([5]; IT 48 h) | further results |
| --- | --- | --- | --- | --- | --- | --- | --- | --- | --- | --- | --- | --- | --- | --- | --- | --- | --- | --- | --- | --- | --- |
| CCCCCCCC(=O)Oc1c[nH]c2ccc(Br)cc12 [Blue-C8, 5-Bromo-3-indolyl octanoate] | — | — | — | — | gray | 0.3 | gray | 1 | — | — | gray | 0.5 | gray | 0.3 | gray | 0.5 | — | — | — | — | C (color of the colonies) ([6]; IT 24 h): —; I (intensity of the color) ([6]; IT 24 h): —; C (color of the colonies) ([6]; IT 48 h): gray; I (intensity of the color) ([6]; IT 48 h): 0.3; C (color of the colonies) ([7]; IT 24 h): gray; I (intensity of the color) ([7]; IT 24 h): 0.5; C (color of the colonies) ([7]; IT 48 h): gray; I (intensity of the color) ([7]; IT 48 h): 1 |
| CCCCCCCCC(=O)Oc1c[nH]c2ccc(Br)cc12 [Blue-C9, 5-Bromo-3-indolyl nonanoate] | — | — | — | — | — | — | gray | 0.5 | — | — | gray | 0.5 | — | — | gray | 0.3 | — | — | — | — | C (color of the colonies) ([6]; IT 24 h): —; I (intensity of the color) ([6]; IT 24 h): —; C (color of the colonies) ([6]; IT 48 h): gray; I (intensity of the color) ([6]; IT 48 h): 0.3; C (color of the colonies) ([7]; IT 24 h): gray; I (intensity of the color) ([7]; IT 24 h): 0.5; C (color of the colonies) ([7]; IT 48 h): gray; I (intensity of the color) ([7]; IT 48 h): 1 |
| CCCCCCCCCC(=O)Oc1c[nH]c2ccc(Br)cc12 [Blue-C10, 5-Bromo-3-indolyl decanoate] | — | — | — | — | — | — | gray | 0.5 | — | — | gray | 0.5 | — | — | gray | 0.3 | — | — | — | — | C (color of the colonies) ([6]; IT 24 h): —; I (intensity of the color) ([6]; IT 24 h): —; C (color of the colonies) ([6]; IT 48 h): gray; I (intensity of the color) ([6]; IT 48 h): 0.3; C (color of the colonies) ([7]; IT 24 h): —; I (intensity of the color) ([7]; IT 24 h): —; C (color of the colonies) ([7]; IT 48 h): gray; I (intensity of the color) ([7]; IT 48 h): 0.5 |
